In patent US8455553B2, “Methods and compositions for prevention and treatment of inflammatory disease, autoimmune disease and transplant rejection” (The Regents of the University of California, priority 2001, dated 2013):
“Also recorded” adds a separate entry of the source. Where two headings read alike, the source gives them in different places.

Assays:
[1] = test system: LPS induced gene expression (RANTES, MCP-1, ISG54, TNF); assay: LPS induced gene expression (interferon regulated genes) in vitro; format: cell-based
[2] = test system: septic shock induced by 1000 μg LPS intraperitoneally in mice; assay: Septic shock, high dose model (1000 μg LPS), lethality; format: in vivo; conditions: for Mortality, percent dead: Table 3, High Dose Model (1000 μg LPS), 1000 μM pre, 500 μM SC post every 12; for Mortality caused by septic shock: intraperitoneal administration prior to LPS challenge coupled with subcutaneous administration following LPS challenge (Table 3)
Protocol: (§1) Endotoxic shock was induced by intraperitoneal injection of 1 μg LPS into laboratory mice in the presence of 20 mg D-galactosamine (D-Gal). This regimen leads to a 90-100% lethality rate by 9-12 hours post injection. The following data in Tables 1-3 reports the mortality rate over 28 days of observation. In one experiment, animals were treated intra peritoneally with piceatannol.
In another experiment, 1 mg of LPS was administered intraperitoneally. Piceatannol or tetramethoxy-piceatannol (TMP) were administered intraperitoneally prior to LPS treatment, with some mice receiving subcutaneous doses of either piceatannol or TMP following LPS administration.

[3] = test system: endotoxic shock induced by intraperitoneal injection of 1 μg LPS in the presence of 20 mg D-galactosamine in laboratory mice; assay: Endotoxic shock, low dose model (1 μg LPS + D-Gal), lethality; format: in vivo; conditions: for Mortality, percent dead: Table 3, Low Dose Model (1 μg LPS + D-Gal); for Mortality caused by septic shock: intraperitoneal administration prior to LPS challenge (Table 3)
Protocol: as §1, with “piceatannol. […]” for “piceatannol.”

[4] = cited from earlier work
tyrosine kinase ZAP70 = biological target: T1, tyrosine kinase ZAP70 (Homo sapiens, UniProt P43403); conditions: Geahlen, et al. (1989); cited from earlier work
T1 sequence (P43403 1-619): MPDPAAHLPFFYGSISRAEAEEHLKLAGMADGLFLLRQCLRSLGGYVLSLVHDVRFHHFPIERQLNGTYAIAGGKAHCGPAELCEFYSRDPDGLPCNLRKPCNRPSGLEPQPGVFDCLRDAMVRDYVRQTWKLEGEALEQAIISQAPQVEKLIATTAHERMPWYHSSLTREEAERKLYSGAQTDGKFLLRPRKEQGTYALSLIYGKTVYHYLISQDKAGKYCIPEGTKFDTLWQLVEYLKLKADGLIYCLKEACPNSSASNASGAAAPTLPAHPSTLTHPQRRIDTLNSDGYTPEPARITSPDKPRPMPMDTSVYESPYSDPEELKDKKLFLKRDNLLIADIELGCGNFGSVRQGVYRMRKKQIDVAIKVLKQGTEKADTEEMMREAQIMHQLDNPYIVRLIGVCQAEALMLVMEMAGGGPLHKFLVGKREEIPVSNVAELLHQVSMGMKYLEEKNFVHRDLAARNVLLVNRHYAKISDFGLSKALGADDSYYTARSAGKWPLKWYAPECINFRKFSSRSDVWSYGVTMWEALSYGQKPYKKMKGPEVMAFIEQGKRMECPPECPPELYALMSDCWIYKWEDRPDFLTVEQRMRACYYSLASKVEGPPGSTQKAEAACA

Ovalbumin immunized mice = assay: Ovalbumin asthma model, cell infiltration in bronchioalveolar lavage fluid; format: in vivo; conditions: 1 mg i.p. daily, FIG. 11
Protocol: Mice (8 animals) were immunized by intraperitoneal (i.p.) injection of Ovalbumin after 2 weeks, The OA solution was administered into the nasal passage by inhalation without (4) or with (4) concurrent piceatannol regimen (1 mg i.p. daily).

[5] = test system: mice that had received piceatannol alone; assay: Toxicity of piceatannol alone in mice; format: in vivo; conditions: for Lethality rate: no LPS
Protocol: as §1

tyrosine kinase Syk = conditions: Geahlen, et al. (1989); cited from earlier work
IL-6 = assay: Production of IL-6 in response to LPS in vitro; format: cell-based
TNFα = assay: Production of TNFα in response to LPS in vitro; format: cell-based
[6] = test system: MBP-TCR+/STAT1- mice developing spontaneous paralysis; assay: Experimental autoimmune encephalomyelitis (EAE), model for multiple sclerosis; format: in vivo
Description: Experimental autoimmune encephalomyelitis (EAE) represents a murine model for multiple sclerosis, a TH1 cells mediated demyelinating autoimmune disorder. In this modes, STAT1-deficient mice (Jackson Laboratories, Maine, USA) were crossed with mice carrying a tansgenic T cell receptor against Myelin Basis Protein (MBP) [Lafaille et al. (1994) Cell 78(3):399-408]. The resulting MBP-TCR^+/STAT1^− mice, when on an H2b/u or H2u/u background develop spontaneous paralysis. Typically, in this transgenic system, the disease progresses from early signs of hind leg paralysis (level 2) to the moribund stage of lethal paralysis (level 5) within 4-5 days.
Three mice showing clear signs of hind leg paralysis were injected s.c. with 1 mg piceatannol every 48 hours (FIG. 10). Under this regimen these animals survived for 30 days, at which time piceatannol administration was stopped.

tyrosine kinase Tyk2 = tyrosine kinase Tyk2 (Homo sapiens, UniProt P29597); conditions: Su, et al. (2000); cited from earlier work
Sequence of tyrosine kinase Tyk2 (P29597 whole entry): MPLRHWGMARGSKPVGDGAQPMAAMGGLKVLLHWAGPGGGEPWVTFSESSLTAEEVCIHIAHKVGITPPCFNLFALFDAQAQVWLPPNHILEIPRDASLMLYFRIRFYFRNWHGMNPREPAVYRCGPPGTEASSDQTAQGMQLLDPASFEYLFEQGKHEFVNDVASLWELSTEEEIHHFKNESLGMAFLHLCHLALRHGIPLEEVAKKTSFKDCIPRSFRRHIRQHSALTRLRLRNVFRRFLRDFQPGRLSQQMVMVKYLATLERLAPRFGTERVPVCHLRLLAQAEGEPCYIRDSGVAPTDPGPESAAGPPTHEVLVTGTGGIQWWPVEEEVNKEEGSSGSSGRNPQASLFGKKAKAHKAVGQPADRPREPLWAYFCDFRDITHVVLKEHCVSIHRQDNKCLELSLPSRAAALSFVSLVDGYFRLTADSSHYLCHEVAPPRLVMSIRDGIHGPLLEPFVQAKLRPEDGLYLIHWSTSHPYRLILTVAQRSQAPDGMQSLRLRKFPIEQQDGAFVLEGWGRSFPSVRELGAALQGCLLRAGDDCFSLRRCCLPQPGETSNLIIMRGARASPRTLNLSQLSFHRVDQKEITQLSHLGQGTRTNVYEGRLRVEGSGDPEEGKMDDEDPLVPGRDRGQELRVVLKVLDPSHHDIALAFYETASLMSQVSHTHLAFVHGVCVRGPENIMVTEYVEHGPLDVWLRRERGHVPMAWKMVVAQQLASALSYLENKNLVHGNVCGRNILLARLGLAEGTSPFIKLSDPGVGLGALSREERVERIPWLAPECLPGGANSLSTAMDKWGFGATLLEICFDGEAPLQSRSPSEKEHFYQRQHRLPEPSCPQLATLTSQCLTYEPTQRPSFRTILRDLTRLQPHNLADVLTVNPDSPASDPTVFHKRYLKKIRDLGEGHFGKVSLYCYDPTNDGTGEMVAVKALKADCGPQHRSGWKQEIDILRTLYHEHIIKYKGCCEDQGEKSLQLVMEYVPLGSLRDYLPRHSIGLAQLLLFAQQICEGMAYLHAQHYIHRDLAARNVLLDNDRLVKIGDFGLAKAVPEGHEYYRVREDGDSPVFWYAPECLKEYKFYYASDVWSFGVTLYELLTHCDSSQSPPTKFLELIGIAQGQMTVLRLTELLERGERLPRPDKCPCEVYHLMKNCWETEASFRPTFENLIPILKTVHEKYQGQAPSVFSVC

For COc1cc(/C=C/c2ccc(OC)c(OC)c2)cc(OC)c1 [TMP, tetramethoxy-piceatannol], the “Inhibition of LPS-mediated ISG induction, compared with piceatannol” value ([1]; in vitro) was “as effective as piceatannol”, the “Mortality, percent dead” value [2] was 44% and the “Mortality caused by septic shock” value [2] was “significantly reduced mortality”. The “Mortality, percent dead” value ([3]; 1000-1250 μM ip prior to LPS) was 38% and the “Mortality caused by septic shock” value [3] was “significantly reducing mortality”.

For Oc1ccc(/C=C/c2cc(O)cc(O)c2)cc1 [resveratrol, trihydroxy-stilbene], the Water solubility [4] is listed as “water soluble”.

For Oc1cc(O)cc(/C=C/c2ccc(O)c(O)c2)c1 [Piceatannol, 3,3′,4,5′-tetrahydroxy-trans-stilbene], the “Concentration that blocks LPS induced gene expression (e.g., RANTES, MCP-1, TNF)” value [1] is listed as “micromolar range”, the “Concentration that blocks LPS induced gene expression (e.g., RANTES, MCP-1, ISG54)” value ([1]; in vitro) is listed as “micromolar concentrations; also recorded: micromolar range” and the “Inhibition of tyrosine kinase ZAP70” value (tyrosine kinase ZAP70) is listed as “inhibitor”. The “Eosinophils infiltration into the lungs” value (Ovalbumin immunized mice) was “significant reduction”, the “Lymphocytes infiltration into the lungs” value (Ovalbumin immunized mice) was “significant reduction” and the Lethality rate ([5]; Table 1, piceatannol 1000 μg intraperitoneal, dead/total, 28 days of observation) was 0/8. The Lethality rate ([5]; Table 2, piceatannol 1000 μg (ip)) was 0/6, the Lethality rate ([5]; Table 2, piceatannol 1000 μg (iv)) was 0/2 and the “Toxicity in vivo (overall statement)” value ([5]; data of Tables 1 and 2 / Examples 1 and 3) was “very low toxicity; also recorded: low toxicity”. For the same compound, the “Acute or chronic toxicity” value ([5]; healthy animals, repeated high dose (1 mg) intraperitoneal injections) was “did not detect any acute or chronic toxicity”, the “Acute toxicity (within 2 hours post-injection)” value ([5]; piceatannol alone, up to 1 mg intraperitoneal or intravenously) was “no signs of acute (i.e., within 2 hours post-injection) toxicity” and the Delayed toxicity ([5]; with or without subsequent LPS injection, monitored for several weeks) was “no signs of delayed toxicity”. For the same compound, the “Inhibition of tyrosine kinase Syk” value (tyrosine kinase Syk) was “inhibitor”, the “Production of IL-6 in response to LPS” value (IL-6) was “inhibited” and the Water solubility [4] was “partially water soluble”. For the same compound, the Water solubility ([4]; listed as piceatannol) was “water soluble”, the Lethality rate ([2]; Table 1, LPS 1000 μg ip, piceatannol 500 → 1000 μg ip, 28 days of observation) was 3/8 and the “Mortality, percent dead” value [2] was 50%. For the same compound, the “Mortality caused by septic shock” value [2] was “significantly reduced mortality”, the Lethality rate ([3]; Table 1, LPS 1 μg (+D-Gal) ip, piceatannol 250 μg ip, 28 days of observation) was 5/12 and the Lethality rate ([3]; Table 1, LPS 1 μg (+D-Gal) ip, piceatannol 500 μg ip, 28 days of observation) was 0/8. For the same compound, the Lethality rate ([3]; Table 2, LPS + D-Gal 1 μg ip, piceatannol 250 μg (ip)) was 3/8, the Lethality rate ([3]; Table 2, LPS + D-Gal 1 μg ip, piceatannol 250 μg (iv) + 250 μg (ip)) was 0/6 and the Lethality rate ([3]; Table 2, LPS + D-Gal 1 μg ip, piceatannol 400 μg (ip)) was 0/2. For the same compound, the “Mortality, percent dead” value ([3]; 400 μM ip prior to LPS) was 48%, the “Mortality, percent dead” value ([3]; 1000 μM ip prior to LPS) was 35% and the Animals rescued ([3]; administration several hours after LPS challenge, animal model of sepsis) was “approximately 50%”. For the same compound, the “Protection against endotoxic shock” value ([3]; combined intravenous and intraperitoneal administration) was “up to 100%”, the “Mortality caused by septic shock” value [3] was “significantly reducing mortality” and the “Death associated with endotoxic shock” value ([3]; single administration by either the intravenous or intraperitoneal route) was “significantly reduced death”. The “Protection against endotoxic shock” value ([3]; single administration, animal model of sepsis) was “up to 100%”, the “Production of TNFα in response to LPS” value (TNFα) was “inhibited” and the “Time to complete paralysis and death after administration was stopped” value ([6]; after 30 days of 1 mg s.c. every 48 hours) was “Ten”. The Disease progression ([6]; for the duration of administration, 1 mg s.c. every 48 hours) was “completely halted disease progression”, the Survival under treatment ([6]; three mice with hind leg paralysis, 1 mg s.c. every 48 hours, administration stopped at that time) was 30 days and the “Inhibition of tyrosine kinase Tyk2” value (tyrosine kinase Tyk2) was “potent inhibitor”.
